Results from the NIST ThermoML archive (doi:10.1016/j.jct.2007.11.001).
Several values for one entry are separate records, joined by “and”; a condition that tells them apart may be missing. Equal values may be shown once.

Test: molar heat capacity at constant pressure
Conditions: 101.33 kPa, Crystal 1, Small (less than 1 g) adiabatic calorimetry

O=P([O-])([O-])[O-].[Cs+].[Mg+2] [caesium-magnesium monophosphate]
Conditions | molar heat capacity at constant pressure
292.8 K | 121 J/K/mol
294.9 K | 121.5 J/K/mol
297 K | 121.9 J/K/mol
298.15 K | 122.1 J/K/mol
298.84 K | 122.3 J/K/mol
300 K | 122.6 J/K/mol
300.7 K | 122.7 J/K/mol
303.3 K | 123.3 J/K/mol
305.9 K | 123.9 J/K/mol
308 K | 124.4 J/K/mol
310 K | 124.8 J/K/mol
310.1 K | 124.8 J/K/mol
312.4 K | 125.4 J/K/mol
314.7 K | 125.9 J/K/mol
316.4 K | 126.2 J/K/mol
318 K | 126.5 J/K/mol
320 K | 127 J/K/mol
321.1 K | 127.2 J/K/mol
324.2 K | 128 J/K/mol
325.3 K | 128.2 J/K/mol
326.4 K | 128.5 J/K/mol
329.66 K | 129.1 J/K/mol
330 K | 129.2 J/K/mol
330.5 K | 128.9 J/K/mol
332.91 K | 129.7 J/K/mol
333.99 K | 129.9 J/K/mol
334.4 K | 129.7 J/K/mol
335.08 K | 130.1 J/K/mol
338.2 K | 130.6 J/K/mol
338.3 K | 130.5 J/K/mol
340 K | 131 J/K/mol
341.8 K | 131.2 J/K/mol
342.2 K | 131.4 J/K/mol
343.4 K | 131.5 J/K/mol
345.83 K | 132 J/K/mol
346.1 K | 132.2 J/K/mol
348.25 K | 132.5 J/K/mol
350 K | 133 J/K/mol and 132.7 J/K/mol
350.05 K | 132.7 J/K/mol
351.85 K | 133 J/K/mol
353.9 K | 133 J/K/mol
357.8 K | 133.9 J/K/mol
360 K | 135 J/K/mol
361.7 K | 134.7 J/K/mol
365.5 K | 135.5 J/K/mol
369.2 K | 136.4 J/K/mol
370 K | 136 J/K/mol
372.9 K | 136.4 J/K/mol
376.6 K | 137.2 J/K/mol
380 K | 138 J/K/mol
380.2 K | 138 J/K/mol
383.7 K | 138 J/K/mol
387.2 K | 138.9 J/K/mol
390 K | 140 J/K/mol
390.7 K | 139.7 J/K/mol
394.2 K | 140.5 J/K/mol
397.7 K | 140.5 J/K/mol
400 K | 141 J/K/mol
401.3 K | 141.3 J/K/mol
404.8 K | 141.3 J/K/mol
408.5 K | 142.2 J/K/mol
410 K | 142 J/K/mol
412.1 K | 143 J/K/mol
415.8 K | 143 J/K/mol
419.6 K | 143.8 J/K/mol
420 K | 144 J/K/mol
423.3 K | 144.7 J/K/mol
427 K | 145.5 J/K/mol
430 K | 146 J/K/mol
430.6 K | 145.5 J/K/mol
434.3 K | 146.3 J/K/mol
437.9 K | 146.3 J/K/mol
440 K | 147 J/K/mol
441.6 K | 147.2 J/K/mol
445.2 K | 148 J/K/mol
448.8 K | 148 J/K/mol
450 K | 148 J/K/mol
452.5 K | 148.8 J/K/mol
456.1 K | 148.8 J/K/mol
459.8 K | 149.7 J/K/mol
460 K | 150 J/K/mol
463.4 K | 150.5 J/K/mol
467.1 K | 150.5 J/K/mol
470 K | 151 J/K/mol
470.7 K | 151.3 J/K/mol
474.4 K | 151.3 J/K/mol
478.1 K | 152.2 J/K/mol
480 K | 152 J/K/mol
481.8 K | 152.2 J/K/mol
485.4 K | 153 J/K/mol
489.1 K | 153.8 J/K/mol
490 K | 154 J/K/mol
492.7 K | 153.8 J/K/mol
496.4 K | 154.6 J/K/mol
500 K | 154.6 J/K/mol and 155 J/K/mol
503.7 K | 155.5 J/K/mol
507.3 K | 155.5 J/K/mol
510 K | 156 J/K/mol
511 K | 156.3 J/K/mol
514.6 K | 156.3 J/K/mol
518.3 K | 157.1 J/K/mol
520 K | 157 J/K/mol
521.8 K | 157.1 J/K/mol
525.4 K | 158 J/K/mol
529 K | 158 J/K/mol
530 K | 159 J/K/mol
532.6 K | 158.8 J/K/mol
536.1 K | 158.8 J/K/mol
539.8 K | 159.6 J/K/mol
540 K | 160 J/K/mol
543.3 K | 159.6 J/K/mol
546.9 K | 160.5 J/K/mol
550 K | 160 J/K/mol
550.5 K | 160.5 J/K/mol
554.1 K | 161.3 J/K/mol
557.7 K | 161.3 J/K/mol
560 K | 162 J/K/mol
561.4 K | 162.1 J/K/mol
565 K | 162.1 J/K/mol
568.7 K | 163 J/K/mol
570 K | 163 J/K/mol
572.4 K | 163 J/K/mol
576.1 K | 163.8 J/K/mol
579.8 K | 163.8 J/K/mol
580 K | 164 J/K/mol
583.4 K | 164.6 J/K/mol
587.1 K | 164.6 J/K/mol
590 K | 165 J/K/mol
590.7 K | 165.5 J/K/mol
594.3 K | 165.5 J/K/mol
597.9 K | 166.3 J/K/mol
600 K | 166 J/K/mol
603.4 K | 166.3 J/K/mol
607 K | 167.1 J/K/mol
610 K | 167 J/K/mol
610.6 K | 167.1 J/K/mol
614.2 K | 168 J/K/mol
617.7 K | 168 J/K/mol
620 K | 168 J/K/mol
621.4 K | 168 J/K/mol
625 K | 168.8 J/K/mol
628.6 K | 168.8 J/K/mol
630 K | 169 J/K/mol
632.3 K | 169.6 J/K/mol
636 K | 169.6 J/K/mol
639.7 K | 170.4 J/K/mol
640 K | 170 J/K/mol
643.3 K | 170.4 J/K/mol
648.9 K | 171.3 J/K/mol
650 K | 171 J/K/mol
